Experimental data published in ChEMBL document CHEMBL1201862, “PubChem BioAssay data set” (2004).
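Dose response: 5 concentrations. Exposure: 48 h. Format: 96-well plates. Endpoint: linear interpolation; highest concentration if not reached. Here, GI50 denotes the concentration required for 50% inhibition of growth.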 Activity calls are given as the source filed them. Rule as the data show it: active = GI50 up to about 1.1 µM and inactive = higher. Bridge positions count the residues as written; N and C are the ends. Where a SMILES comes first, the peptide text is derived from it. Square brackets hold non-standard residues; d marks the D form. Peptide text beside a SMILES is read from it. I, II: the chains in the order shown. The star is where a group is joined. * marks the point of attachment. Quinoxaline2carbonyl = O=C(c1cnc2ccccc2n1)*; NMeV = CN[CH](C(=O)O)C(C)C; NMeC = CN[CH](CS)C(=O)O; Boc = CC(C)(C)OC(=O)*; nBu = CCCC*

Assays:
Experiment in all cases: NCI tumour cell line growth inhibition, 48 h
[1] = test system: 786-0
[2] = test system: ACHN
[3] = test system: CAKI-1
[4] = test system: COLO 205
[5] = test system: HCC 2998
[6] = test system: HOP-92
[7] = test system: HT-29
[8] = test system: NCI-H226
[9] = test system: NCI-H23
[10] = test system: NCI-H460
[11] = test system: NCI/ADR-RES
[12] = test system: OVCAR-3
[13] = test system: OVCAR-4
[14] = test system: OVCAR-5
[15] = test system: RPMI-8226
[16] = test system: SF-539
[17] = test system: SK-MEL-5
[18] = test system: SW-620
[19] = test system: UACC-257
[20] = test system: UO-31

Row | Structure (SMILES) | GI50 [1] | GI50 [2] | GI50 [3] | GI50 [4] | GI50 [5] | GI50 [6] | GI50 [7] | GI50 [8] | GI50 [9] | GI50 [10] | GI50 [11] | GI50 [12] | GI50 [13] | GI50 [14] | GI50 [15] | GI50 [16] | GI50 [17] | GI50 [18] | GI50 [19] | GI50 [20]
1 | Clc1ccc(C(Cc2ccccc2)c2c(Cl)nc(N3CCNCC3)nc2Cl)cc1 (stereo not given) | 16.5 µM (inactive) | 13.6 µM (inactive) | 5.13 µM (inactive) | 1.73 µM (inactive) | 6.3 µM (inactive) | 8.57 µM (inactive) | 2.64 µM (inactive) | 22.8 µM (inactive) | 18.2 µM (inactive) | 12.1 µM (inactive) | 15.8 µM (inactive) | 14.3 µM (inactive) | 18.6 µM (inactive) | 17.7 µM (inactive) | 13.7 µM (inactive) | 14.5 µM (inactive) | 14.7 µM (inactive) | 14.5 µM (inactive) | 15.7 µM (inactive) | 11.3 µM (inactive)
2 | CC(=O)/C(=C/N1CCNC1=S)C(=O)Nc1ccccc1C | > 100 µM (inactive) | > 100 µM (inactive) | > 100 µM (inactive) | > 100 µM (inactive) | > 100 µM (inactive) | > 100 µM (inactive) | > 100 µM (inactive) | > 100 µM (inactive) | > 100 µM (inactive) | > 100 µM (inactive) | > 100 µM (inactive) | > 100 µM (inactive) | > 100 µM (inactive) | > 100 µM (inactive) | > 100 µM (inactive) | > 100 µM (inactive) | > 100 µM (inactive) | > 100 µM (inactive) | > 100 µM (inactive) | > 100 µM (inactive)
3 | CCCCOc1ccc(CC(NC(=O)OC(C)(C)C)C(=O)NC(C)C(=O)NC(Cc2ccccc2)C(=O)NCC(N)=O)cc1 (stereo not given) (Boc-Y(nBu)AFG-NH2; configuration not given here) | > 100 µM (inactive) | > 100 µM (inactive) | > 100 µM (inactive) | > 100 µM (inactive) | > 100 µM (inactive) | 61.4 µM (inactive) | > 100 µM (inactive) | > 100 µM (inactive) | > 100 µM (inactive) | > 100 µM (inactive) | > 100 µM (inactive) | > 100 µM (inactive) | > 100 µM (inactive) | > 100 µM (inactive) | 32.6 µM (inactive) | > 100 µM (inactive) | > 100 µM (inactive) | > 100 µM (inactive) | > 100 µM (inactive) | > 100 µM (inactive)
4 | COCCOCCOC1=C(Cl)C(=O)c2c(O)ccc(O)c2C1=O | 1.12 µM (active) | 1.68 µM (inactive) | 1.27 µM (inactive) | 1.03 µM (active) | 18.6 µM (inactive) | 1.98 µM (inactive) | 3.48 µM (inactive) | 18.1 µM (inactive) | 2.48 µM (inactive) | 12.9 µM (inactive) | 2.93 µM (inactive) | 1.63 µM (inactive) | 1.85 µM (inactive) | 9.04 µM (inactive) | 0.718 µM (active) | 1.67 µM (inactive) | 1.71 µM (inactive) | 0.287 µM (active) | 1.99 µM (inactive) | 2.16 µM (inactive)
5 | COc1ccc(C(=O)Oc2c(C#N)sc3c2c(=O)n(-c2ccccc2)c(=S)n3-c2ccccc2)cc1 | 44.1 µM (inactive) | 40.7 µM (inactive) | 22.3 µM (inactive) | 25.8 µM (inactive) | 27.9 µM (inactive) | 23.6 µM (inactive) | 22.2 µM (inactive) | 24.2 µM (inactive) | 20.3 µM (inactive) | 30.5 µM (inactive) | 20.6 µM (inactive) | 20.3 µM (inactive) | 28.1 µM (inactive) | 26.4 µM (inactive) | 25.2 µM (inactive) | 21.6 µM (inactive) | 21.6 µM (inactive) | 32.7 µM (inactive) | 47.5 µM (inactive) | 2.12 µM (inactive)
6 | CC1NC(=O)C(NC(=O)c2cnc3ccccc3n2)COC(=O)C(C(C)C)N(C)C(=O)C2CSSCC(C(=O)N(C)C(C(C)C)C(=O)OCC(NC(=O)c3cnc4ccccc4n3)C(=O)NC(C)C(=O)N2C)N(C)C1=O (stereo not given) (I: Quinoxaline2carbonyl-SA[NMeC][NMeV] / II: Quinoxaline2carbonyl-SA[NMeC][NMeV]; ester I:1-II:C, I:C-II:1; disulfide I:3-II:3; configuration not given here) | < 0.01 µM (active) | < 0.01 µM (active) | < 0.01 µM (active) | < 0.01 µM (active) | < 0.01 µM (active) | < 0.01 µM (active) | < 0.01 µM (active) | < 0.01 µM (active) | < 0.01 µM (active) | < 0.01 µM (active) | < 0.01 µM (active) | < 0.01 µM (active) | < 0.01 µM (active) | < 0.01 µM (active) | < 0.01 µM (active) | < 0.01 µM (active) | 0.0316 µM (active) | < 0.01 µM (active) | < 0.01 µM (active) | < 0.01 µM (active)
7 | O=C1C(S(=O)(=O)c2ccccc2)=C(CS(=O)(=O)c2ccccc2)[C@@H](OCc2ccccc2)[C@@H]1OCc1ccccc1 | 26.4 µM (inactive) | 31.8 µM (inactive) | 30.1 µM (inactive) | 25.8 µM (inactive) | 18.9 µM (inactive) | 12.4 µM (inactive) | 13.5 µM (inactive) | 17.6 µM (inactive) | 16.9 µM (inactive) | 21 µM (inactive) | 20.7 µM (inactive) | 12.5 µM (inactive) | 20.7 µM (inactive) | 27.9 µM (inactive) | 11.6 µM (inactive) | 19.2 µM (inactive) | 18.2 µM (inactive) | 18.7 µM (inactive) | 21.6 µM (inactive) | 18.5 µM (inactive)
8 | CCOC(=O)C(CC(C)C)NC(=O)C(Cc1ccc(N(CCCl)CCCl)cc1)NC(C)=O (stereo not given) | 2.02 µM (inactive) | 2.08 µM (inactive) | 1.29 µM (inactive) | 3.7 µM (inactive) | 13.2 µM (inactive) | 0.63 µM (active) | 11.7 µM (inactive) | 14.4 µM (inactive) | 4.24 µM (inactive) | 2.75 µM (inactive) | 18.1 µM (inactive) | 4.56 µM (inactive) | 8.89 µM (inactive) | 12.7 µM (inactive) | 2.82 µM (inactive) | 2.18 µM (inactive) | 3.3 µM (inactive) | 7.73 µM (inactive) | 3.74 µM (inactive) | 8.02 µM (inactive)
9 | O=c1[nH]nc(Cc2ccccc2)n1/N=C/c1ccc([N+](=O)[O-])cc1 | > 100 µM (inactive) | > 100 µM (inactive) | > 100 µM (inactive) | > 100 µM (inactive) | > 100 µM (inactive) | > 100 µM (inactive) | > 100 µM (inactive) | > 100 µM (inactive) | > 100 µM (inactive) | > 100 µM (inactive) | > 100 µM (inactive) | > 100 µM (inactive) | > 100 µM (inactive) | > 100 µM (inactive) | > 10 µM (inactive) | > 100 µM (inactive) | > 100 µM (inactive) | > 100 µM (inactive) | > 100 µM (inactive) | > 100 µM (inactive)
10 | COC(=O)CCc1ccc2c(c1)[C@H](C(=O)OC)[C@@H](c1ccc(O)cc1)O2 | > 10 µM (inactive) | > 100 µM (inactive) | > 100 µM (inactive) | > 100 µM (inactive) | > 100 µM (inactive) | > 100 µM (inactive) | > 100 µM (inactive) | 25.5 µM (inactive) | 71.6 µM (inactive) | 58.9 µM (inactive) | > 100 µM (inactive) | > 100 µM (inactive) | > 100 µM (inactive) | > 100 µM (inactive) | 75.5 µM (inactive) | 25.6 µM (inactive) | 40.1 µM (inactive) | > 100 µM (inactive) | > 100 µM (inactive) | > 100 µM (inactive)
11 | Cc1ccc2[nH]c3c(C)c4cc[n+](C)cc4c(C)c3c2c1 | 0.328 µM (active) | 4.92 µM (inactive) | 3.59 µM (inactive) | 0.828 µM (active) | 2.06 µM (inactive) | 4.32 µM (inactive) | 3.33 µM (inactive) | 0.74 µM (active) | 1.23 µM (inactive) | 3.66 µM (inactive) | 7.93 µM (inactive) | 2.84 µM (inactive) | 2.54 µM (inactive) | 5 µM (inactive) | 16.1 µM (inactive) | 0.849 µM (active) | 1.65 µM (inactive) | 0.374 µM (active) | 3.71 µM (inactive) | 5.19 µM (inactive)
12 | CC(C)(C)OC(=O)N1CCCC1C(=O)NC(c1ccccc1)c1ccccc1 (stereo not given) | > 100 µM (inactive) | > 100 µM (inactive) | > 100 µM (inactive) | > 100 µM (inactive) | > 100 µM (inactive) | > 100 µM (inactive) | > 100 µM (inactive) | > 100 µM (inactive) | > 100 µM (inactive) | > 100 µM (inactive) | > 100 µM (inactive) | > 100 µM (inactive) | > 100 µM (inactive) | > 100 µM (inactive) | > 100 µM (inactive) | > 100 µM (inactive) | > 100 µM (inactive) | > 100 µM (inactive) | > 100 µM (inactive) | > 100 µM (inactive)
13 | NC(Cc1cccc([N+](=O)[O-])c1)C(=O)O (stereo not given) | > 100 µM (inactive) | > 100 µM (inactive) | > 100 µM (inactive) | > 100 µM (inactive) | > 100 µM (inactive) | 61.5 µM (inactive) | > 100 µM (inactive) | > 100 µM (inactive) | > 100 µM (inactive) | > 100 µM (inactive) | > 100 µM (inactive) | > 100 µM (inactive) | > 100 µM (inactive) | > 100 µM (inactive) | > 100 µM (inactive) | > 100 µM (inactive) | > 100 µM (inactive) | > 100 µM (inactive) | > 100 µM (inactive) | > 100 µM (inactive)
